This passage reports IC50 results from ChEMBL document CHEMBL5604062, “ASAP - ZIKV NS2B-NS3 protease fluorescence dose response” (2024).

Where “and” joins values, the source holds several entries; their conditions need not be identical. Equal values may be shown once.

The test deals with Nonstructural protein 3 (Zika virus, UniProt A0A024AXB9). The experiment in a line: Functional biochemical assay to identify treatments for viral infectious disease that targets Zika NS2B-NS3 protease. Utilizing a direct enzyme activity measurement method, reading the fluorescence intensity is used to characterize the relative potency of inhibitors as IC50. The arrangement: species or system PRVABC59.
Nonstructural protein 3, sequence (A0A024AXB9 whole entry): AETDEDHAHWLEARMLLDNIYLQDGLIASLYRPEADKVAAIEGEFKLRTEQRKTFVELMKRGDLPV
Turning to `Cc1cc(C(=O)Nc2ccc3c(c2)CNC3)c2cnn(C)c2n1`, the IC50 worked out at 5.56 µM.
For `O=C(NC[C@H]1CCCO1)[C@H](Nc1ccc2c(c1)CNC2)c1cc(Cl)cc2[nH]ncc12` the value was 0.111 µM.
Next, `Cc1cc(C(=O)Nc2ccc3c(c2)CNC3)c2cn[nH]c2c1`: 0.077 µM and 0.066 µM; `COc1cc(Br)cc2c1NC(=O)[C@]2(Nc1ccc2c(c1)CNC2)C(N)=O`: 19.9 µM.
Next, `O=C(Nc1ccc2c(c1)CNC2)c1cccc(-c2cnco2)c1`: 1.83 µM; `N#Cc1cc(Cl)cc(C(=O)Nc2ccc3c(c2)CNC3)c1`: 0.276 µM.
Regarding `Cn1cc2cc(Cl)cc(C(=O)Nc3ccc4c(c3)CNC4)c2n1`, the IC50 stood at 0.214 µM.
Next, `COCCOc1ccc(Cl)cc1C(=O)Nc1ccc2c(c1)CNC2`: 3.06 µM.
For `Cc1ccc(S(=O)(=O)CNC(=O)[C@H](Nc2ccc3c(c2)CNC3)c2cc(Cl)cc3[nH]ncc23)cc1` the value was 0.749 µM; for `O=C(Nc1ccc2c(c1)CNC2)N1C[C@H](C2CC2)C[C@@H]1C1CC1`, more than 25 µM.
In the case of `O=C(Nc1ccc2c(c1)CNC2)c1nc2ccccc2s1`, the half-maximal inhibitory concentration (IC50) was more than 25 µM.
In turn, `O=C(NCc1ccc2c(c1)CCNC2)c1cc(Cl)cc2[nH]ncc12` registered an IC50 of 23.2 µM.
Next, `CCc1ncc(Cl)cc1C(=O)Nc1ccc2c(c1)CNC2`: 1.6 µM.
In the case of `N#CCCNC(=O)[C@H](Nc1ccc2c(c1)CNC2)c1cc(Cl)cc(C2CC2)c1`, the IC50 is 0.052 µM and 0.037 µM.
For `Cc1nc2cc(Cl)ccc2cc1C(=O)Nc1ccc2c(c1)CNC2` the value was more than 25 µM; for `C[C@H]1C[C@H](c2cccc(CN)c2)[C@@H](c2cc(Cl)cc(NC(=O)OCc3ccccc3)c2)C1`, 15 µM; for `O=C(Nc1ccc2c(c1)CNC2)c1cc(Br)cc2[nH]c([C@H]3CCOC3)nc12`, 0.265 µM.
For `CNC(=O)[C@H](Nc1ccc2c(c1)CNC2)c1cc(Cl)cc(C2CC2)c1` the value was 0.055 µM and 0.042 µM; for `Cn1ncc(C(=O)Nc2cc(CCCN)ccn2)c1O`, more than 25 µM.
Next, `O=C(Nc1ccc2c(c1)CNC2)c1cc(Cl)ccc1SC1CCCC1`: 0.857 µM.
On to `O=C(Nc1ccc2c(c1)CNC2)C1(c2ccc(Cl)cc2)CCCC1`, for which the IC50 is more than 25 µM.
Next, `N#C[C@H](Nc1ccc2c(c1)CNC2)c1cc(Cl)cc(C2CC2)c1`: 0.174 µM; `O=C1Cc2c(cccc2C(=O)Nc2ccc3c(c2)C(=O)OC3)N1`: more than 25 µM.
Regarding `C[C@H]1Oc2c(cccc2C(=O)Nc2ccc3c(c2)CNC3)NC1=O`, the IC50 amounted to 1.13 µM.
The molecule `CCCN1C(=O)[C@](Nc2ccc3c(c2)CNC3)(C(N)=O)c2cc(Cl)ccc21` returned an IC50 of 21 µM.
For `Cc1c(C(=O)Nc2cc3c(cn2)OCC3)cc(C2CC2)n1C` the value was more than 25 µM; for `O=C(Nc1ccc2c(c1)CNC2)c1cc(Br)cc2[nH]c(C3CCOCC3)nc12`, 0.59 µM.
Next, `CC(C)COc1ccc(Cl)cc1C(=O)Nc1ccc2c(c1)CNC2`: 2.29 µM; `CC(C)(C)O[C@H]1CCCN(C(=O)Nc2ccc3c(c2)CNC3)C1`: more than 25 µM; `CC1(C)CN(C(=O)Nc2ccc3c(c2)CNC3)CC(F)(F)C1`: more than 25 µM.
`CNC(=O)[C@]1(Nc2ccc3c(c2)CNC3)C(=O)Nc2ccc(Cl)cc21` had an IC50 of more than 25 µM.
For `NS(=O)(=O)c1cc(Cl)cc(C(=O)Nc2ccc3c(c2)CNC3)c1` the value was 1.08 µM.
For `O=C(Nc1ccc2c(c1)CNC2)c1cc2ccccc2[nH]1` the value was 24.4 µM; for `Cc1ccc2cc(Cl)cc(C(=O)Nc3ccc4c(c3)CNC4)c2n1`, 0.866 µM; for `Cn1cc(CCc2nc3c(C(=O)Nc4ccc5c(c4)CNC5)cc(Cl)cc3[nH]2)cn1`, 0.156 µM.
Molecule `O=C(Nc1cnc2c(c1)CNCC2)c1cc(Cl)cc2[nH]ncc12` had a half-maximal inhibitory concentration (IC50) of 0.366 µM.
For `N#C[C@H](Nc1ccc2c(c1)CNC2)c1ccnc(C(F)(F)F)c1` the value was more than 25 µM; for `O=C(Nc1ccc2c(c1)CNC2)c1cc(Cl)ccc1OCC(F)(F)F`, 2.77 µM.
On to `O=C(Nc1ccc2c(c1)CNC2)c1cc(Cl)nc2[nH]ncc12`, for which the half-inhibitory concentration (IC50) was 1.54 µM.
In the case of `Cc1c(C(=O)Nc2cc(CN(C)C)ccn2)cc(C2CC2)n1C`, the IC50 was more than 25 µM.
For `C#Cc1ccnc(NC(=O)c2cc(C3CC3)n(C)c2C)c1` the value was more than 25 µM.
Next, `O=C(Nc1ccc2c(c1)CNC2)N1CCC[C@](O)(c2ccccc2)C1`: more than 25 µM; `N#C[C@H](Nc1ccc2c(c1)CNC2)c1n[nH]c2cc(C(F)(F)F)ccc12`: 10.3 µM.
For `O=C(Nc1ccc2c(c1)CNC2)N1CCC[C@H](CC2CCC2)C1` the value was more than 25 µM.
Regarding `O=C1CCN(c2cc(Cl)cc(C(=O)Nc3ccc4c(c3)CNC4)c2)C(=O)N1`, it took 1.23 µM to reach half-maximal inhibition (IC50).
For `NCCCc1ccnc(NC(=O)c2cnn3c2CCC3)c1` the value was more than 25 µM; for `CCS(=O)(=O)c1ccc(Cl)cc1C(=O)Nc1ccc2c(c1)CNC2`, 2.52 µM; for `CCN(CC)C[C@H]1CCCN(C(=O)Nc2ccc3c(c2)CNC3)C1`, more than 25 µM.
For `O=C(Nc1ccc2c(c1)CNC2)c1ccc2scnc2c1`, the IC50 was 15 µM and > 25 µM.
For `O=C(Nc1ccc2c[nH]nc2c1)c1cc(Cl)cc2[nH]ncc12` the value was more than 25 µM.
`Cn1ncc2c(C(=O)Nc3ccc4c(c3)CNC4)cc(C3CC3)nc21` showed an IC50 of 5.07 µM.
`COc1ccc(CN2Cc3cc(NC(=O)c4cc(Cl)cc5[nH]ncc45)cc(Br)c3C2)cc1` gave an IC50 of 9.89 µM.
For `COCCc1ccnc(NC(=O)c2cc(C3CC3)n(C)c2C)c1` the value was more than 25 µM.
Next, `O=C(Nc1ccc2c(c1)CNC2)N1C[C@H](C(F)F)C2(CC2)C1`: 24.6 µM.
Next, `CCCN1C(=O)[C@](Nc2ccc3c(c2)CNC3)(C(=O)NC)c2ccccc21`: more than 25 µM; `O=C(Nc1ccc2c(c1)CNC2)c1cc(Cl)cc2ccncc12`: 0.079 µM and 0.07 µM.
Consider `C[C@H]1CC2(CN1C(=O)Nc1ccc3c(c1)CNC3)CC(F)(F)C2`, for which the 50% inhibitory concentration (IC50) was more than 25 µM.
For `O=C(Nc1ccc2c(c1)CNC2)N1CC[C@H](CC(F)(F)F)C1` the value was more than 25 µM; for `CC(C)NC(=O)[C@H](Nc1ccc2c(c1)C(=O)OC2)c1cc(Cl)cc2[nH]ncc12`, more than 25 µM.
Next, `O=C(Nc1ccc2c(c1)CNC2)N1CC(F)(F)CC2(CCC2)C1`: more than 25 µM; `NCCCc1ccnc(NC(=O)c2nnc(C3CC3)s2)c1`: more than 25 µM.
For `O=C1Cc2c(cc(Br)cc2C(=O)Nc2ccc3c(c2)CNC3)N1` the value was 0.021 µM and 0.02 µM; for `N#C[C@H](Nc1ccc2c(c1)CNC2)c1cccc2c1CCNC2=O`, 22.4 µM; for `CC1([C@H]2CCCN(C(=O)Nc3ccc4c(c3)CNC4)C2)CC1`, more than 25 µM.
As for `CCCN1C(=O)[C@](Nc2ccc3c(c2)CNC3)(C(=O)NC)c2cc(Cl)ccc21`, the IC50 is more than 25 µM.
For `Cc1c[nH]c2ncnc(C(=O)Nc3ccc4c(c3)CNC4)c12` the value was more than 25 µM; for `O=C(Nc1ccc2c(c1)CNC2)[C@H]1C[C@@H]1c1ccccc1`, more than 25 µM.
For `Nc1noc2cccc(C(=O)Nc3ccc4c(c3)CNC4)c12` the value was 0.977 µM; for `CS(=O)(=O)Nc1cccc(C(=O)Nc2ccc3c(c2)CNC3)c1`, 12.8 µM.
In turn, `Clc1cc([C@H](C#Cc2ccccc2)Nc2ccc3c(c2)CNC3)c2cn[nH]c2c1` gave an IC50 of 1.03 µM.
For `O=C(Nc1ccc2c(c1)CNC2)c1cc(Br)cc2[nH]c(=O)[nH]c12` the value was 0.027 µM and 0.025 µM.
For `O=C(NCCCn1ccnc1)[C@H](Nc1ccc2c(c1)CNC2)c1cc(Cl)cc(C2CC2)c1` the value was 0.124 µM.
For `O=C1COc2c(cccc2C(=O)Nc2ccc3c(c2)CNC3)N1` the value was 1.22 µM; for `O=C(Nc1ccc2c(c1)CNC2)c1ccc2nc(O)sc2c1`, more than 25 µM.
Molecule `CCSc1ccc(Cl)cc1C(=O)Nc1ccc2c(c1)CNC2` showed a half-inhibitory concentration (IC50) of 0.706 µM.
For `N#Cc1ccc(C(=O)Nc2ccc3c(c2)CNC3)cc1Cl` the value was 11.4 µM.
Next, `O=C1COc2cc(C(=O)Nc3ccc4c(c3)CNC4)ccc2N1`: 6.14 µM; `CCOC(=O)c1ncoc1CNC(=O)[C@H](Nc1ccc2c(c1)CNC2)c1cc(Cl)cc(C2CC2)c1`: 0.297 µM.
The molecule `O=C(Nc1ccc2c(c1)CNC2)c1cccc2sccc12` had an IC50 of 0.456 µM.
For `O=C(Nc1ccc2c(c1)CNC2)c1cncc2[nH]ncc12` the value was 0.443 µM.
`O=C(Nc1ccc2c(c1)CNC2)c1cc(F)c2[nH]ccc2c1` gave a 50% inhibitory concentration (IC50) of 0.274 µM.
For `N#C[C@H](Nc1ccc2c(c1)CNC2)c1cc(Cl)cc2c1OCC2` the value was 2.44 µM; for `O=C(Nc1ccc2c(c1)CNC2)c1ncnc2[nH]ccc12`, more than 25 µM; for `NCc1cc(Cl)cc(C(=O)Nc2ccc3c(c2)C(=O)OC3)c1`, more than 25 µM.
For `O=C(Nc1ccc2c(c1)CNC2)c1cc(Cl)cc2[nH]c(-c3ncnn3C3CC3)nc12` the value was 0.312 µM; for `O=C(Nc1ccc2c(c1)CNC2)c1c(Cl)ccc2c1OCO2`, more than 25 µM; for `CC(=O)Nc1cccc(C(=O)Nc2ccc3c(c2)CNC3)n1`, more than 25 µM.
For `CC(C)(C)NC(=O)[C@H](Nc1ccc2c(c1)CNC2)c1cc(Cl)cc(C2CC2)c1` the value was 4.69 µM; for `CCc1cnccc1-c1nc2c(C(=O)Nc3ccc4c(c3)CNC4)cc(Cl)cc2[nH]1`, 0.364 µM; for `CC1(C)C(=O)Nc2ccc(C(=O)Nc3ccc4c(c3)CNC4)cc21`, 7.49 µM.
`O=C(NCc1cccnc1)[C@H](Nc1ccc2c(c1)CNC2)c1cc(Cl)cc2[nH]ncc12`: half-maximal inhibition (IC50) was put at 0.122 µM.
Next, `O=C(Nc1ccc2c(c1)CNC2)c1ccc2ncsc2c1`: 0.997 µM.
For `O=C1Cc2c(cccc2C(=O)Nc2ccc3c(c2)CNCCC3)N1` the value was 0.569 µM; for `CNC(=O)[C@H](Nc1ccc2c(c1)C(=O)OC2)c1cc(Cl)cc2[nH]ncc12`, more than 25 µM.
For `O=C(Nc1ccc2c(c1)CNC2)c1cccc2[nH]cnc12` the value was 2.81 µM.
In turn, `C[C@H](C1CC1)n1ncc2c(C(=O)Nc3ccc4c(c3)CNC4)cc(C3CC3)nc21` showed a half-maximal inhibitory concentration (IC50) of 8.05 µM.
Next, `Cn1cc2c(C(=O)Nc3ccc4c(c3)CNC4)cccc2n1`: 1.13 µM.

In general, IC50 refers to the midpoint of a concentration-inhibition curve.
